Measured values as given in patent US9920057B2, “Substituted pyrazino[1′,2′:1 ,6]pyrido[3,4-b]indoles as phosphodiesterase type 5 inhibitors” (Chongqing University of Arts and Sciences, priority 2015, dated 2018).
Several values for one entry are separate records, joined by “and”; a condition that tells them apart may be missing. Equal values may be shown once. Read-outs that look alike come from different tables or passages of the source. Blank lines part the entries; values can stand above or below the compound they belong to.

Legend:
[1] = background statement; cited from earlier work
normal rat = assay: Erectile function of normal rat: blood pressure, intracavernous pressure and detumescence time on cavernous nerve stimulation; assay type: in vivo; settings: reference group (Calais), dose not stated
Experimental: Rats were anesthetized with 2% pentobarbital […], then incision was made in the right side of neck, a PE-50 silicon tube connected with a pressure transducer was inserted into the carotid artery, to record the change of the blood pressure.
The erectile activity was induced by a bipolar stainless-steel, stimulus parameters at a pulse width of […], stimulation frequency of 7.98 Hz, current of 3 mA, stimulation duration of 40 s, and then record the intracavernous pressure (ICP).
Assessment of erectile function: ICP, BP, change of ICP and detumescence time were monitored though electric cavernous nerve stimulation at 2, 6 and 24 hours post dosing. Erectile function was evaluated by change of ICP and detumescence time.

[2] = Study on pharmacokinetics in rats, oral administration; assay type: in vivo, SD rat; settings: oral 10.0 mg · kg^−1
Experimental: Sample Preparation Method: One step protein precipitation
Precipitant: ACN, with concentration of Verapamil (5.00 ng·mL-1)
Calibration Curve and QC samples Preparation: 5.00 μL each of the calibration or QC working solution and 45.0 μL of blank plasma were transferred into a 1.5-mL microcentrifuge tube. Final standard curve concentration levels were 1.00, 2.50, 5.00, 10.0, 50.0, 100, 500 and 1000 ng·mL-1. The QC concentration levels were 2.50 or 5.00, 50.0 and 800 ng·mL-1. Dilution QC was 5000 ng·mL-1.
Plasma Samples Preparation: Aliquots of 10.0 μL of real samples, calibration curve samples and QC samples were supplemented with 100 μL of precipitant. After vortexed for 3.00 min and centrifuged at 12000 rpm for 5.00 min, the supernatant 10 μL was injected for LC-MS/MS analysis.
Number of Rats/Group: 3/group
Administration Route: oral administration
Blood Collection Time: 0 min, 15 min, 30 min, 1 h, 2 h, 4 h, 6 h, 8 h, 24 h

PDE7A = target: T1, PDE7A (Homo sapiens, UniProt Q13946); assay: Inhibition of PDE activity (assay kit); assay type: biochemical
T1 construct: purchased
Experimental: (§1) i. Supplement 99 μl assay buffer per well, then add 1 μl compound in DMSO dilution to wells of V96 MicroWell Plates and uniformly mix;
(§2) ii. Add 5 μl compound in assay buffer dilution to each well of 96-well microplate;
(§3) the final concentration of compound as below:
(§4) The inhibitory potential of test compounds on several types of phosphodiesterase (PDE) activity is determined according to the protocol of assay kit.

PDE3A = target: T2, PDE3A (Homo sapiens, UniProt Q14432); assay: Inhibition of PDE activity (assay kit); assay type: biochemical
T2 construct: purchased
Experimental: as §1, §2, §3, §4

PDE2A = target: T3, PDE2A (Homo sapiens, UniProt O00408); assay: Inhibition of PDE activity (assay kit); assay type: biochemical
T3 construct: purchased
Experimental: as §1, §2, §3, §4

PDE1A = target: T4, PDE1A (Homo sapiens, UniProt P54750); assay: Inhibition of PDE activity (assay kit); assay type: biochemical
T4 construct: purchased
Experimental: as §1, §2, §3, §4

PDE5A = target: T5, PDE5A (Homo sapiens, UniProt O76074); assay: Inhibition against PDE5 (Homogenous Time Resolve Fluoresce); assay type: biochemical; settings: HTF
T5 construct: purchased SIGMA-ALDRICH E904
Experimental: Method: IC50 of an inhibition effect on PDE5A (E904, SIGMA-ALDRICH) of test compounds was tested by using Sildenafil (S1431, selleck) as a positive control sample and the method of Homogenous Time Resolve Fluoresce, HTF (Cat. No. 62GM2PEB, Cisbio.)

[3] = SD, rat, plasma, po, 10 mg/kg, Mean of 3 rats
[4] = SD, rat, plasma, po, 10 mg/kg, Mean of 3 rats, read-out: AUC0-inf
[5] = SD, rat, plasma, po, 10 mg/kg, Mean of 3 rats, read-out: AUC0-t
[6] = SD, rat, plasma, po, 10 mg/kg, Mean of 3 rats, read-out: Cmax
[7] = SD, rat, plasma, po, 10 mg/kg, individual rats
[8] = SD, rat, plasma, po, 10 mg/kg, individual rats, read-out: AUC0-inf
[9] = SD, rat, plasma, po, 10 mg/kg, individual rats, read-out: AUC0-t
[10] = SD, rat, plasma, individual rats

T1 sequence (Q13946 whole entry): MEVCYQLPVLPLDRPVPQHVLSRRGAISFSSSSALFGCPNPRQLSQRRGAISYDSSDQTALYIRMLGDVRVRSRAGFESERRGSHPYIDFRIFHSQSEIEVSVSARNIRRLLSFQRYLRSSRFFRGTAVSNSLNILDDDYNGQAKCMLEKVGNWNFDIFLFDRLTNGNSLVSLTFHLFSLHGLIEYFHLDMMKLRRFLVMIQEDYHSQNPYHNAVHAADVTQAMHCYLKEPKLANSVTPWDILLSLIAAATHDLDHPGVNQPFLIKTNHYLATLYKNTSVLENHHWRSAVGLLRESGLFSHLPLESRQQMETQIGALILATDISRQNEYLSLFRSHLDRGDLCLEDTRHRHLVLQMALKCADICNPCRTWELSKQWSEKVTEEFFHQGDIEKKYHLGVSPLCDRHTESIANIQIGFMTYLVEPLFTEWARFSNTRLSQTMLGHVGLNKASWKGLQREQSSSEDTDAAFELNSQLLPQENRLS
T3 sequence (O00408 whole entry): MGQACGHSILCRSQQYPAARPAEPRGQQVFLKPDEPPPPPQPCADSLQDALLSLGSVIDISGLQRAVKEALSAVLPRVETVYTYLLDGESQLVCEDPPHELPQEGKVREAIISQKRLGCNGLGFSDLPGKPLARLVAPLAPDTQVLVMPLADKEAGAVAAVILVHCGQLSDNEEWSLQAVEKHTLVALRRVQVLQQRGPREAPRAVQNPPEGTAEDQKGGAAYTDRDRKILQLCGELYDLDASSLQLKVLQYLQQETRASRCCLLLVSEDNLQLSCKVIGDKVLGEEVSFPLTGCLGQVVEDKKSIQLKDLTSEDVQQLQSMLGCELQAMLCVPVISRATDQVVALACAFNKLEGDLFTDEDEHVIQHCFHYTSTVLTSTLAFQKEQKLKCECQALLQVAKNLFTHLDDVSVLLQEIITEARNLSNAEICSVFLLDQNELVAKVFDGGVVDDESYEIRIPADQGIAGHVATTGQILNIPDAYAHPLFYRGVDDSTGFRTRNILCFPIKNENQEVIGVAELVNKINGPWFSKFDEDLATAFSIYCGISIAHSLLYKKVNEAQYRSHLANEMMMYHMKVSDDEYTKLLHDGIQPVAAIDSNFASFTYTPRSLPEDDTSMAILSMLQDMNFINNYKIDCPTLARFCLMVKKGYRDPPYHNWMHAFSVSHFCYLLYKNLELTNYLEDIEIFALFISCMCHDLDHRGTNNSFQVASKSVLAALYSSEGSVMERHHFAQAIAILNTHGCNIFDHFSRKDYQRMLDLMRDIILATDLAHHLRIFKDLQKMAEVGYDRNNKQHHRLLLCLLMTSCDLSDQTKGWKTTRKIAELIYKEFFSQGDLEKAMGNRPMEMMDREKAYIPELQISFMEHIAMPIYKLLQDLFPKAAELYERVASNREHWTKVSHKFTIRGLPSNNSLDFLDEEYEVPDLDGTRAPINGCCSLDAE
T4 sequence (P54750 whole entry): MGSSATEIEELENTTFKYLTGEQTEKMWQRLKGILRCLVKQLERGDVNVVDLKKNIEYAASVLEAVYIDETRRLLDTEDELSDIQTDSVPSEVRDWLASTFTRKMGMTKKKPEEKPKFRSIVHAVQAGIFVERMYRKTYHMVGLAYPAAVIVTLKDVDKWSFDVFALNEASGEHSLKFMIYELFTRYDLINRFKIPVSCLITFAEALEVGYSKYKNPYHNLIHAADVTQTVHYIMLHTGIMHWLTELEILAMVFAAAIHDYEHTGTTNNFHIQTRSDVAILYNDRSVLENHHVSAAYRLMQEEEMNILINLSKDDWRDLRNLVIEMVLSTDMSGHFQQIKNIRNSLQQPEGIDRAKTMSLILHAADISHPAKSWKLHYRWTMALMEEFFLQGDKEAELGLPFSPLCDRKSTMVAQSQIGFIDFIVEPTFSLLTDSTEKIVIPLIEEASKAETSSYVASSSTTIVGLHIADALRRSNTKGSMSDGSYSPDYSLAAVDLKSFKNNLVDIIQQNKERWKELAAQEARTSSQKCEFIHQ
T2 sequence (Q14432 whole entry): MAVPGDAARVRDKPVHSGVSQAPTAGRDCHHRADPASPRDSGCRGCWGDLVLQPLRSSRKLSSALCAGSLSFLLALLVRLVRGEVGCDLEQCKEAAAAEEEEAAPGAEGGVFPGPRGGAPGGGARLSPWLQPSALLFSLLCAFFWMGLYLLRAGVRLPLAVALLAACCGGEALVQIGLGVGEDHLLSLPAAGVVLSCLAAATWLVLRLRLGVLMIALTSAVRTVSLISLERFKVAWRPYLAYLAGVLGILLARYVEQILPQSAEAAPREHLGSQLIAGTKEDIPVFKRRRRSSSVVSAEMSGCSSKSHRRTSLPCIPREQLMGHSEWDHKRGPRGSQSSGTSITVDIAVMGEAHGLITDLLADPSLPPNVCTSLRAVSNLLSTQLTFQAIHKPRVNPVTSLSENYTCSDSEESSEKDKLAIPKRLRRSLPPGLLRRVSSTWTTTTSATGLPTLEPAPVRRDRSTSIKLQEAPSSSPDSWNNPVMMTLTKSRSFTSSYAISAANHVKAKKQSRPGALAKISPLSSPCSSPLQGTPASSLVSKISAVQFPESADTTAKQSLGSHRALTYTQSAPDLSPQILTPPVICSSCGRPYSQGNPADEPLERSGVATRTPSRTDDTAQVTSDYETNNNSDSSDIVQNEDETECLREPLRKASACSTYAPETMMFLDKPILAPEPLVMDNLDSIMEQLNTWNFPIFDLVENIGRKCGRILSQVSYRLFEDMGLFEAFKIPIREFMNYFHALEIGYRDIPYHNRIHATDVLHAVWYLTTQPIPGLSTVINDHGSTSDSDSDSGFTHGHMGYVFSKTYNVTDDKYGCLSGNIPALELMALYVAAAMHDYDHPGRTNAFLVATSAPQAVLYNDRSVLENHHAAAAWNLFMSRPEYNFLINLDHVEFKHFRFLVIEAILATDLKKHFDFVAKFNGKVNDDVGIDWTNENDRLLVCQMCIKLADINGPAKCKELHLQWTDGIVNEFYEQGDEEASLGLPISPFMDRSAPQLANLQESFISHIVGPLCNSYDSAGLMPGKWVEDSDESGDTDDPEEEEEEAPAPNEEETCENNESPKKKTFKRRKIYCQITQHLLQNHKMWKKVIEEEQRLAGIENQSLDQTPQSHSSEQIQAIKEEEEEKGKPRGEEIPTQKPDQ

AUMC0-inf ([2]; Mean of 3 rats): 54240 h · h · ng · mL^−1
AUMC0-t ([2]; Mean of 3 rats): 52702 h · h · ng · mL^−1
Kel ([2]; Mean of 3 rats): 0.248 h⁻¹
MRTPO ([2]; Mean of 3 rats): 6.07 h
half-life [2, 3]: 2.99 h
AUC0-inf [2, 4]: 8860 ng·h/mL
AUC0-t [2, 5]: 8810 ng·h/mL
Cmax [2, 6]: 926 ng/mL
half-life [2, 7]: 3.46 h
AUC0-inf [2, 8]: 8810 ng·h/mL
AUC0-t [2, 9]: 8720 ng·h/mL
Tmax [2, 10]: 4 h
Kel ([2]; individual rats): 0.200 h⁻¹ and 0.197 h⁻¹ and 0.346 h⁻¹
MRTPO ([2]; individual rats): 6.40 h and 5.69 h and 6.13 h
t1/2 ([2]; individual rats): 3.51 h and 2.00 h
IC50 (PDE7A): > 10 µM
IC50 (PDE3A): > 10 µM
IC50 (PDE2A): > 10 µM
IC50 (PDE1A): > 10 µM
SMILES: CN1CC(=O)N2[C@H](c3ccc4c(c3)OCO4)c3[nH]c4ccccc4c3C[C@@H]2C1=O [Cialis]
half-life in body [1]: 24 to 36 h
BP after stimulation (normal rat; 2 hours after dosing): 64.14 ± 9.86 mmHg
BP before stimulation (normal rat; 2 hours after dosing): 100.98 ± 4.48 mmHg
Change of BP (normal rat; 2 hours after dosing): 36.85 ± 7.34 mmHg
Change of ICP (normal rat; 2 hours after dosing): 31.82 ± 7.63 mmHg
Detumescence Time (normal rat; 2 hours after dosing): 40.50 ± 21.14 s
ICP after stimulation (normal rat; 2 hours after dosing): 39.19 ± 8.58 mmHg
ICP before stimulation (normal rat; 2 hours after dosing): 7.38 ± 1.75 mmHg
BP after stimulation (normal rat; 6 hours after dosing): 58.14 ± 14.30 mmHg
BP before stimulation (normal rat; 6 hours after dosing): 91.20 ± 28.48 mmHg
Change of BP (normal rat; 6 hours after dosing): 33.07 ± 17.13 mmHg
Change of ICP (normal rat; 6 hours after dosing): 34.15 ± 6.99 mmHg
Detumescence Time (normal rat; 6 hours after dosing): 44.25 ± 13.35 s
ICP after stimulation (normal rat; 6 hours after dosing): 41.76 ± 6.49 mmHg
ICP before stimulation (normal rat; 6 hours after dosing): 7.61 ± 1.53 mmHg
BP after stimulation (normal rat; 24 hours after dosing): 78.00 ± 2.68 mmHg
Change of BP (normal rat; 24 hours after dosing): 34.26 ± 7.18 mmHg
Change of ICP (normal rat; 24 hours after dosing): 35.38 ± 4.55 mmHg
Detumescence Time (normal rat; 24 hours after dosing): 41.25 ± 10.34 s
ICP after stimulation (normal rat; 24 hours after dosing): 43.01 ± 6.19 mmHg
ICP before stimulation (normal rat; 24 hours after dosing): 7.63 ± 4.03 mmHg
AUC0-inf ([2]; individual rats): 6051 ng·h/mL and 11729 ng·h/mL
AUC0-t ([2]; individual rats): 5993 ng·h/mL and 11723 ng·h/mL
AUMC0-inf ([2]; individual rats): 56364 h · h · ng · mL^−1 and 34440 h · h · ng · mL^−1 and 71915 h · h · ng · mL^−1
AUMC0-t ([2]; individual rats): 53611 h · h · ng · mL^−1 and 32747 h · h · ng · mL^−1 and 71748 h · h · ng · mL^−1
Cmax ([2]; individual rats): 747 ng/mL and 676 ng/mL and 1356 ng/mL

IC50 (PDE5A): 0.566 µM
AUMC0-inf ([2]; Mean of 3 rats): 69719 h · h · ng · mL^−1
AUMC0-t ([2]; Mean of 3 rats): 63864 h · h · ng · mL^−1
Kel ([2]; Mean of 3 rats): 0.193 h⁻¹
MRTPO ([2]; Mean of 3 rats): 4.19 h
half-life [2, 3]: 3.73 h
AUC0-inf [2, 4]: 16300 ng·h/mL
AUC0-t [2, 5]: 16100 ng·h/mL
Cmax [2, 6]: 4680 ng/mL
half-life [2, 7]: 4.85 h
AUC0-inf [2, 8]: 18600 ng·h/mL
AUC0-t [2, 9]: 18100 ng·h/mL
Cmax ([2]; SD, rat, plasma, po, 10 mg/kg, individual rats, read-out: Cmax): 4580 ng/mL
Tmax [2, 10]: 0.25 h
Cmax ([2]; individual rats): 4288 ng/mL and 5171 ng/mL
Kel ([2]; individual rats): 0.143 h⁻¹ and 0.221 h⁻¹ and 0.216 h⁻¹
MRTPO ([2]; individual rats): 5.35 h and 3.70 h and 3.52 h
t1/2 ([2]; individual rats): 3.14 h and 3.21 h
SMILES: NN1CC(=O)N2[C@H](c3ccc4c(c3)OCO4)c3[nH]c4ccccc4c3C[C@@H]2C1=O [DDCI02]
AUC0-inf ([2]; individual rats): 15617 ng·h/mL and 14794 ng·h/mL
AUC0-t ([2]; individual rats): 15563 ng·h/mL and 14723 ng·h/mL
AUMC0-inf ([2]; individual rats): 99393 h · h · ng · mL^−1 and 57718 h · h · ng · mL^−1 and 52047 h · h · ng · mL^−1
AUMC0-t ([2]; individual rats): 85428 h · h · ng · mL^−1 and 56156 h · h · ng · mL^−1 and 50008 h · h · ng · mL^−1
